From article PMC4919643, “Intestinally-targeted TGR5 agonists equipped with quaternary ammonium have an improved hypoglycemic effect and reduced gallbladder filling effect” (Scientific Reports, 2016)
Like-named read-outs stand apart in the source and are kept apart here.

Columns and labels:
[1] = Drug levels in plasma, bile and gallbladder tissue after 3 days oral administration to ob/ob mice; format: in vivo; conditions: male, mouse, after the 3-day gallbladder filling assay, 100 mg/kg p.o.
Excerpt: Drug levels test in plasma, bile, and gallbladder tissue after 3 days oral administration to ob/ob mice. Plasma, bile, and gallbladder were taken from experiments performed in accordance with the guidelines for the use of experimental animals in the Shanghai Laboratory Animal Administration (Shanghai, China) after three days treatment of 26a to ob/ob mice. Blood samples were collected through cardiac puncture into heparinized tubes, and plasma was harvested by centrifugation. Bile and gallbladder tissue were collected from each mouse after blood withdrawal. To 10 mg of gallbladder was added 100 μL of MeOH, and the mixture was homogenized. A 15 μL aliquot of bile samples was diluted with 100 μL of MeOH and then mixed. Plasma, bile, and tissue homogenate were stored at −20 °C. These samples were protein precipitated with MeCN using clopidogrel as the internal standard, and the supernatant was injected onto a LC-MS/MS system for the quantification of 26a. Chromatographic separation was […]
0.5 mL min−1 using ternary mobile phase: A (H2O with 5 mM ammonium acetate and 0.5% TFA); B(MeCN: H2O = 95:5 with 0.1% TFA ); C (MeOH with 1% TFA). The MS/MS detection was carried out in MRM mode using a positive electrospray ionization […]
Long-term study of 26a in ob/ob mice. Three groups of ob/ob mice (male) was orally […]
At day 0 (before dosing), 4, 8, 12 and 18, non-fasted blood glucose was measured before dosing. Mice were fasted for 6 h after dosing and then fasted blood glucose was measured.
The serum level of HbA1c was measured at day 0 (before dosing) and 18 by Adicon biochemical analyzer. The body weight of each mouse was recorded every day. The triglyceride and total cholesterol level was measured after the final dose.
Statistical analysis. All data were expressed as the mean ± SEM or mean ± SD. For the experiment including multiple time points, one-way ANOVA statistical analysis was used; otherwise, unpaired Student’s t test was used. P < 0.05 was considered to be statistically significant.

ob/ob mice [2] = test: Long-term (18-day) study in ob/ob mice; format: in vivo, mouse; conditions: for decrease of HbA1c level on day 18: 18 days; for HbA1c, signed change vs control (Fig. 9C): day 18
mouse TGR5 = target: T1, mouse TGR5 (Mus musculus, UniProt Q80SS6); test: In vitro TGR5 reporter gene assay (mTGR5/CRE/HEK293)
T1 sequence (Q80SS6 1-329): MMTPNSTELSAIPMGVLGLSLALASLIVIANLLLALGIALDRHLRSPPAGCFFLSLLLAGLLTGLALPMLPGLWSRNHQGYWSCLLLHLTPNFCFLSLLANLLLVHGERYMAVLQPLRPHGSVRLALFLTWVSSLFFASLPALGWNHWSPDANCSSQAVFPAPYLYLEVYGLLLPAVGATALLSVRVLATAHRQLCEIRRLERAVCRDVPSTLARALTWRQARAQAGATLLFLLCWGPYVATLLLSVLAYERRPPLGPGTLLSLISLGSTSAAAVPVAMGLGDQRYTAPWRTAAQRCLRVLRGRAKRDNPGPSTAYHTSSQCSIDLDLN

ob/ob mice [3] = test: Acute efficacy (blood glucose) in ob/ob mice; format: in vivo, mouse; conditions: 100 mg/kg p.o. single dose
Description: Mice were refed at 6 h after dosing. *p < 0.05, **p < 0.01 vs. control. Error bar indicates SEM.
Acute efficacy in ob/ob mice. 7-week-old ob/ob mice (male) were divided into three groups (n = 8) based on 2 h-fasted blood glucose. […]
mg/kg) and 0.25% CMC (control) was then orally administered to 2 h-fasted mice, and blood glucose was measured at 2, 4, 6, 8, 10, and 24 h after dosing. The animals were refed at 6 h after dosing.
GLP-1 secretion in ob/ob mice. The ob/ob mice (female) were divided into 4 groups and […]
then divided into 3 subgroup of different time point (n = 8-9 each subgroup). All the animals were fasted for 6 hours before collecting blood samples at the indicated time points. At other times, animals were free accessed to water and food. […] Concentrations of active GLP-1[7-36 amide] in the serum were measured using ELISA kit from Linco Research. […]
administered to 12 h-fasted ob/ob mice (n = 3 per time point). […] After centrifugation at 11000 rpm for 5 mins, the supernatant was analyzed by LC-MS/MS. […]
administered orally to overnight-fasted ob/ob mice (male, n = 3-6). 1 h after dosing, mice were refed for 3 hours, and then gallbladders were removed, and the area was measured using vernier caliper. The relative gallbladder area was calculated from the length multiplied by the width of the gallbladder. The bile weight was measured using […]

[4] = target: T2, farnesyl X receptor (FXR) (Homo sapiens, UniProt Q96RI1); test: FXR assay (LanthaScreen TR-FRET coactivator assay)
T2 sequence (Q96RI1 262-486 limits assumed): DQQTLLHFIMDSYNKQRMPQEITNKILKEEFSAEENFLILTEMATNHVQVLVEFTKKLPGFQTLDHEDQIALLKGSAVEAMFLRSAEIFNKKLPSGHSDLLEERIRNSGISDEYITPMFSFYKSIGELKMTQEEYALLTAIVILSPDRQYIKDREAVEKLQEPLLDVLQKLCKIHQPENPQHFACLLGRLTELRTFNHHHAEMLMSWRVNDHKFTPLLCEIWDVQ

[5] = 100 mg/kg p.o., after 18-day treatment
[6] = 18-day treatment, 50 or 100 mg/kg p.o., dose-dependent
[7] = 18-day treatment, data not shown

concentration at 3 days ([1]; read-out: concentration in gallbladder): 112 ± 30 ng/mL
concentration at 3 days ([1]; bile, read-out: concentration in bile): 7800 ± 1850 ng/mL
concentration at 3 days ([1]; plasma, read-out: concentration in plasma): 18 ± 3 ng/mL
level of alanine aminotransferase (ob/ob mice [2]; [7]): No significant changes
level of alkaline phosphatase (ob/ob mice [2]; [7]): No significant changes
level of aspartate aminotransferase (ob/ob mice [2]; [7]): No significant changes
level of total bilirubin (ob/ob mice [2]; [7]): No significant changes
EC50 (mouse TGR5): 0.71 nM
concentration up to which activation of FXR was not observed [4]: > 100 µM
SMILES: CN(CC[N+](C)(C)C)C(=O)CCc1cc(Cl)c(Oc2ccsc2C(=O)N2CCN(C3CC3)c3ccccc32)cc1Cl [Compound 26a]
decrease of HbA1c level on day 18 (ob/ob mice [2]; 50 mg/kg p.o., not significant): 0.48%
triglyceride, signed change vs control (Fig. 9D) (ob/ob mice [2]; 50 mg/kg p.o., after 18-day treatment): -7.2%
HbA1c, signed change vs control (Fig. 9C) (ob/ob mice [2]; 50 mg/kg p.o.): -0.48%
decrease of HbA1c level on day 18 (ob/ob mice [2]; 100 mg/kg p.o., significant): 0.94%
decrease of triglyceride level (ob/ob mice [2]; [5]): 22%
triglyceride, signed change vs control (Fig. 9D) (ob/ob mice [2]; [5]): -22%
HbA1c, signed change vs control (Fig. 9C) (ob/ob mice [2]; 100 mg/kg p.o.): -0.94%
body weight of mice (ob/ob mice [2]; 18-day treatment): not affected
significant change in levels of total cholesterol (ob/ob mice [2]; 18-day treatment, 50 or 100 mg/kg p.o.): not observed
fasting blood glucose (ob/ob mice [2]; [6]): decreased dramatically
non-fasting blood glucose (ob/ob mice [2]; [6]): decreased dramatically
time post-dosing until which glucose-lowering effect was maintained (ob/ob mice [3]): at least 24 h
